From patent US20030157194A1, “Method for treating cellulite” (priority 2002, published 2003)

How the values were obtained:
cellulite-affected skin [1] = assay: topical treatment of cellulite-affected skin on the sides of a test subject by gliding a solid salt block; type: in vivo, human; conditions: person
Excerpt: […] This person may be a afflicted with cellulite on their sides, between their armpits and their waist.
Rather, […] sides are left moistened. Then, […] areas of his sides, by very gently gliding the block in dabbing motions, circular motions, up and down motions, or zigzag motions (the motions being insufficient to cause debridement and abrasion of the affected skin) on the moistened areas for about 15 to about 30 seconds. […]
This once daily application is continued for 5 weeks.

cellulite-affected skin [2] = assay: topical treatment of cellulite-affected skin on thighs and buttocks of female persons by gliding a solid salt block; type: in vivo, human

## [Cl-].[Na+] [NaCl, sodium chloride]
cellulite-affected skin [1]; continued once per day application after 5 weeks
  state of cellulite on continued application: remain smooth and free of cellulite
cellulite-affected skin [1]; pre-moistened skin, once daily, end of 5 weeks
  state of cellulite at the end of 5 weeks: completely eliminated
cellulite-affected skin [2]; female, continued once per day application after 5 weeks
  state of cellulite on continued application: remained free of cellulite
cellulite-affected skin [2]; person, pre-moistened skin, once daily application for about 15 to 30 seconds, end of 2 weeks
  state of cellulite at the end of 2 weeks: alleviated
cellulite-affected skin [2]; person, pre-moistened skin, once daily application, end of 5 weeks
  state of cellulite at the end of 5 weeks: completely eliminated
